Test results taken from US20150231236A1, “METHODS FOR TREATING PATIENTS WITH HYPERCHOLESTEROLEMIA THAT IS NOT ADEQUATELY CONTROLLED BY MODERATE-DOSE STATIN THERAPY” (Regeneron Pharmaceuticals, Inc., priority 2014, published 2015).

Test system: patients with hypercholesterolemia at high CV risk not adequately controlled with atorvastatin (20 mg or 40 mg)
Assay: Example 2: randomized, double-blind trial, lipid efficacy of mAb316P add-on to atorvastatin vs EZE add-on, atorvastatin dose doubling or switch to rosuvastatin
Format: in vivo, human
Experimental: The present study was a randomized, double-blind, active-comparator, parallel-group study in patients at high CV risk with non-FH or heFH who are not adequately controlled with atorvastatin (20 mg or 40 mg) with or without other lipid-modifying therapy (LMT) (excluding EZE). The study design is illustrated in FIG. 1. Patients who entered the study were taking either atorvastatin 20 mg or atorvastatin 40 mg. The former patients were randomized to 1 of 3 treatment arms (arms 1 to 3); the latter patients were randomized to 1 of 4 treatment arms (arms 4 to 7). The treatment arms are as follows:
(1) mAb316P+atorvastatin 20 mg+placebo-EZE; (2) Placebo-mAb316P+atorvastatin 40 mg+placebo-EZE; and (3) Placebo-mAb316P+atorvastatin 20 mg+EZE 10 mg.
(4) mAb316P+atorvastatin 40 mg+placebo-EZE; (5) Placebo-mAb316P+atorvastatin 80 mg+placebo-EZE; (6). Placebo-mAb316P+rosuvastatin 40 mg+placebo-EZE; and (7) Placebo-mAb316P+atorvastatin 40 mg+EZE 10 mg.
(B) a double-blind treatment period of 24 weeks. Each patient received a SC injection Q2W (mAb316P or placebo-mAb316P) and was administered (or instructed to take) 2 oral blinded medications daily (a statin [atorvastatin or rosuvastatin] and EZE or placebo-EZE). The first injection of mAb316P or placebo-mAb316P was administered at the clinical site on day 1, after study assessments were completed, and as soon as possible after the patient was randomized into the study. The patient/caregiver administered subsequent injections outside of the clinic according to the dosing schedule. On days where the clinic study visit coincided with dosing, the dose of study drugs (injectable and oral) were administered after all study assessments had been performed and all laboratory samples collected. The last dose of mAb316P or placebo-mAb316P was administered at week 22. The last dose of daily oral study drugs was administered at week 24. At week 12, based on their baseline CV risk, certain patients randomized to mAb316P in a blinded manner, had their dose increased as follows:
Each patient received a subcutaneous (SC) injection once every two weeks (Q2W) (mAb316P or placebo-mAb316P) and took 2 oral blinded medications daily (a statin [atorvastatin or rosuvastatin] and EZE or placebo-EZE).
The injectable study treatment was a single SC injection of 1 mL for a 75 mg or 150 mg dose of mAb316P or placebo-mAb316P provided in an auto-injector, administered in the abdomen, thigh, or outer area of the upper arm. The first injection of study drug was administered at the clinical site, as soon as possible after the patient was randomized into the study. The patient was monitored at the clinical site for at least 30 minutes following the first injection. The patient/caregiver administered subsequent injections outside of the clinic, according to the dosing schedule. On days where the clinic study visit coincided with dosing, the dose of study drug was administered after all study assessments have been performed and all laboratory samples collected.
The dose of mAb316P was increased, in a blinded manner, from 75 mg to 150 mg SC Q2W, starting at week 12, based on baseline CV risk in the following circumstances:
The primary efficacy endpoint was the percent change in calculated LDL-C from baseline to week 24, which is defined as: 100× (calculated LDL-C value at week 24−calculated LDL-C value at baseline)/calculated LDL-C value at baseline. The baseline calculated LDL-C value was the last LDL-C level obtained before the first double-blind study drug injection. The calculated LDL-C at week 24 will be the LDL-C level obtained within the week 24 analysis window and during the main efficacy period. The main efficacy period was defined as the time from the first double-blind study drug injection up to 21 days after the last double-blind study drug injection or up to the upper limit of the week 24 analysis window, whichever comes first.
Total-C, HDL-C, TG, ApoB, ApoA-1, and Lp (a) were directly measured by a central laboratory. […]

CC(C)c1nc(N(C)S(C)(=O)=O)nc(-c2ccc(F)cc2)c1/C=C/[C@@H](O)C[C@@H](O)CC(=O)O [rosuvastatin, reference compound]
LDL-C W24 % change from baseline, LS mean (SE) (ITT population, week 24, treatment arm as labelled): −21.4%
Calculated LDL-C LS mean (SE), % Change from Baseline (Week 4): −22.4 (2.8) %
Calculated LDL-C LS mean (SE), Change from Baseline (Week 4): −25.2 (3.0)
Calculated LDL-C LS mean (SE), Value (mg/dL) (Week 4): 83.5 (3.0) mg/dL
Calculated LDL-C LS mean (SE), % Change from Baseline (Week 8): −21.0 (3.2) %
Calculated LDL-C LS mean (SE), Change from Baseline (Week 8): −22.9 (3.3)
Calculated LDL-C LS mean (SE), Value (mg/dL) (Week 8): 85.8 (3.3) mg/dL
Calculated LDL-C LS mean (SE), % Change from Baseline (Week 12): −23.3 (3.2) %
Calculated LDL-C LS mean (SE), Change from Baseline (Week 12): −26.3 (3.5)
Calculated LDL-C LS mean (SE), Value (mg/dL) (Week 12): 82.4 (3.5) mg/dL
Calculated LDL-C LS mean (SE), % Change from Baseline (Week 16): −15.7 (3.5) %
Calculated LDL-C LS mean (SE), Change from Baseline (Week 16): −18.7 (3.8)
Calculated LDL-C LS mean (SE), Value (mg/dL) (Week 16): 90.0 (3.8) mg/dL
Calculated LDL-C LS mean (SE), % Change from Baseline (Week 24): −21.4 (4.2) %
Calculated LDL-C LS mean (SE), Change from Baseline (Week 24): −23.1 (4.5)
Calculated LDL-C LS mean (SE), Value (mg/dL) (Week 24): 85.6 (4.5) mg/dL
patients achieving the more stringent LDL-C goal of <70 mg/dL (Week 24, calculated LDL-C, across atorvastatin 20 mg and 40 mg regimens): 42.2%
reduced LDL-C levels by (atorvastatin 40 mg regimen, week 24, add-on mAb316P, add-on ezetimibe, doubling of atorvastatin dose or switch to rosuvastatin 40 mg): 21.4%
Proportion of Patients Reaching LDL-C goal (%) (week 24, calculated LDL-C <70 mg/dL very high risk or <100 mg/dL high risk, combined estimate): 62.2%
